Measurements from PMC9786741, “Elucidating the Role of Santalol as a Potent Inhibitor of Tyrosinase: In Vitro and In Silico Approaches” (Molecules, 2022).

Biological target: T1, tyrosinase (mushroom tyrosinase, polyphenoloxidase EC 1.14.18.1)
T1 construct: gene PPO3; native enzyme from mushroom caps; ammonium sulphate, DEAE-cellulose, Superdex 200; single 63 kDa band on SDS-PAGE; isoenzyme not determined
Assay: isothermal titration calorimetry
Parameters: species or system Agaricus bisporus
Details: 25 °C, pH 6.8, 25 mM phosphate; step 1 (strongest) of three-step sequential binding model
Text: isothermal titration calorimetry on tyrosinase (mushroom tyrosinase, polyphenoloxidase EC 1.14.18.1)

- Kd: 1.27 µM
Compound: C=C1C2CCC(C2)C1(C)CC/C=C(/C)CO (stereo not shown) [santalol]
